Laboratory results from patent US9511073B2, “Aromatic amides and uses thereof” (TAXIS Pharmaceuticals, Inc., priority 2011, dated 2016).
Converted amounts (≈) assume the structure as drawn.

Tested on: Staphylococcus aureus (Isolate ID ATCC 29213)
Assay: Bacterial assay: MIC by broth microdilution or agar dilution (CLSI), S. aureus ATCC 29213
Assay type: cell-based
Conditions: Staphylococcus aureus, ATCC29213, read-out: S. aureus MIC (μg/mL) Activity Range, S. aureus (ATCC29213)
Method: Compounds are tested for antimicrobial activity by susceptibility testing in liquid or on solid media. Minimum inhibitory concentrations (MICs) for compounds against each strain are determined by the broth microdilution or agar dilution method according to the guidelines of the Clinical Laboratories and Standards Institute, formerly the National Committee for Clinical Laboratory Standards (Clinical Laboratories and Standards Institute. Methods for Dilution Antimicrobial Susceptibility Tests for Bacteria That Grow Aerobically; Approved Standard—Seventh Edition. Document M7-A7. CLSI, Wayne, Pa., 2006; Clinical Laboratories and Standards Institute). The bacterial strains tested include S. aureus (Staphylococcus aureus (Isolate ID ATCC 29213)) and an FtsZ mutant of this isolate (FtsZ-G196A Staphylococcus aureus (Isolate ID GG/190723/sa/1.2)). Compound MICs were determined to be in the following activity ranges “A” activity≦0.25 μg/mL; “B” activity>0.25 μg/mL-1.0 μg/mL; “C” activity>1.0 μg/mL-16 μg/mL; “D” activity>16 μg/mL and ND=not determined. The bracketed entries indicate entantiomer(s) and their activity.

SMILES | MIC [µg/mL]
CC(Oc1ccc(F)c(C(N)=O)c1F)c1nc(-c2ccc(C(F)(F)F)nc2)c(Cl)o1 (stereo not shown) [Compound 50] | 1 to 16 (≈ 2.23 to 35.7 µM)
CNC(=O)C(Oc1ccc(F)c(C(N)=O)c1F)c1nc(-c2ccc(C(F)(F)F)cc2)c(Cl)o1 (stereo not shown) [Compound 51, 3-(1-(5-chloro-4-(4-(trifluoromethyl)phenyl)oxazol-2-yl)-2-(methylamino)-2-oxoethoxy)-2,6-difluorobenzamide] | 1 to 16 (≈ 2.04 to 32.7 µM)
NC(=O)OCC(Oc1ccc(F)c(C(N)=O)c1F)c1nc(-c2ccc(C(F)(F)F)cc2)c(Cl)o1 (stereo not shown) [Compound 52, 2-(3-carbamoyl-2,4-difluorophenoxy)-2-(5-chloro-4-(4-(trifluoromethyl)phenyl)oxazol-2-yl)ethyl carbamate] | 0.25 to 1 (≈ 0.494 to 1.98 µM)
NC(=O)c1c(F)ccc(OC(C(=O)O)c2nc(-c3ccc(Cl)cc3)c(Cl)o2)c1F (stereo not shown) [Compound 53, 2-(3-carbamoyl-2,4-difluorophenoxy)-2-(5-chloro-4-(4-chlorophenyl)oxazol-2-yl)acetic acid] | > 16
CC(Oc1ccc(F)c(C(N)=O)c1F)c1nc(-c2ccc(C(F)(F)F)cn2)c(Br)o1 (stereo not shown) [Compound 54] | 0.25 to 1 (≈ 0.508 to 2.03 µM)
CC(Oc1ccc(F)c(C(N)=O)c1F)c1nc(-c2cnc(C(F)(F)F)nc2)c(Cl)o1 (stereo not shown) [Compound 55] | 1 to 16 (≈ 2.23 to 35.7 µM)
CCOC(=O)CCC(=O)OCC(Oc1ccc(F)c(C(N)=O)c1F)c1nc(-c2ccc(C(F)(F)F)cc2)c(Cl)o1 (stereo not shown) [Compound 56, 2-(3-carbamoyl-2,4-difluorophenoxy)-2-(5-chloro-4-(4-(trifluoromethyl)phenyl)oxazol-2-yl)ethyl ethyl succinate] | 0.25 to 1
CN(C)CC(=O)OCC(Oc1ccc(F)c(C(N)=O)c1F)c1nc(-c2ccc(C(F)(F)F)cc2)c(Br)o1 (stereo not shown) [Compound 57, 2-(5-bromo-4-(4-(trifluoromethyl)phenyl)oxazol-2-yl)-2-(3-carbamoyl-2,4-difluorophenoxy)ethyl 2-(dimethylamino)acetate] | 0.25 to 1 (≈ 0.422 to 1.69 µM)
CN(CC(=O)OCC(Oc1ccc(F)c(C(N)=O)c1F)c1nc(-c2ccc(Cl)cc2)c(Cl)o1)C(=O)OC(C)(C)C (stereo not shown) [Compound 58, 2-(3-carbamoyl-2,4-difluorophenoxy)-2-(5-chloro-4-(4-chlorophenyl)oxazol-2-yl)ethyl 2-((tert-butoxycarbonyl)(methyl)amino)acetate] | 1 to 16 (≈ 1.67 to 26.6 µM)
CNCC(=O)OCC(Oc1ccc(F)c(C(N)=O)c1F)c1nc(-c2ccc(Cl)cc2)c(Cl)o1 (stereo not shown) [Compound 59, 2-(3-carbamoyl-2,4-difluorophenoxy)-2-(5-chloro-4-(4-chlorophenyl)oxazol-2-yl)ethyl 2-(methylamino)acetate] | 0.25 to 1 (≈ 0.5 to 2 µM)
NC(=O)c1c(F)ccc(OC(COC(=O)CN2C(=O)c3ccccc3C2=O)c2nc(-c3ccc(C(F)(F)F)cc3)c(Br)o2)c1F (stereo not shown) [Compound 60, 2-(5-bromo-4-(4-(trifluoromethyl)phenyl)oxazol-2-yl)-2-(3-carbamoyl-2,4-difluorophenoxy)ethyl 2-(1,3-dioxoisoindolin-2-yl)acetate] | 0.25 to 1 (≈ 0.36 to 1.44 µM)
CN(CC(=O)OCC(Oc1ccc(F)c(C(N)=O)c1F)c1nc(-c2ccc(C(F)(F)F)cc2)c(Br)o1)C(=O)OC(C)(C)C (stereo not shown) [Compound 61, 2-(5-bromo-4-(4-(trifluoromethyl)phenyl)oxazol-2-yl)-2-(3-carbamoyl-2,4-difluorophenoxy)ethyl 2-((tert-butoxycarbonyl)(methyl)amino)acetate] | 0.25 to 1 (≈ 0.369 to 1.47 µM)
CNCC(=O)OCC(Oc1ccc(F)c(C(N)=O)c1F)c1nc(-c2ccc(C(F)(F)F)cc2)c(Br)o1 (stereo not shown) [Compound 62, 2-(5-bromo-4-(4-(trifluoromethyl)phenyl)oxazol-2-yl)-2-(3-carbamoyl-2,4-difluorophenoxy)ethyl 2-(methylamino)acetate] | 0.25 to 1 (≈ 0.432 to 1.73 µM)
C=CCc1oc(C(COC(C)=O)Oc2ccc(F)c(C(N)=O)c2F)nc1-c1ccc(C(F)(F)F)cc1 (stereo not shown) [Compound 63, 2-(5-allyl-4-(4-(trifluoromethyl)phenyl)oxazol-2-yl)-2-(3-carbamoyl-2,4-difluorophenoxy)ethyl acetate] | 1 to 16
NC(=O)c1c(F)ccc(OC(COC(=O)CCN2C(=O)c3ccccc3C2=O)c2nc(-c3ccc(C(F)(F)F)cc3)c(Br)o2)c1F (stereo not shown) [Compound 64, 2-(5-bromo-4-(4-(trifluoromethyl)phenyl)oxazol-2-yl)-2-(3-carbamoyl-2,4-difluorophenoxy)ethyl 3-(1,3-dioxoisoindolin-2-yl)propanoate] | < 0.25
CCCc1oc(C(COC(C)=O)Oc2ccc(F)c(C(N)=O)c2F)nc1-c1ccc(C(F)(F)F)cc1 (stereo not shown) [Compound 65, 2-(3-carbamoyl-2,4-difluorophenoxy)-2-(5-propyl-4-(4-(trifluoromethyl)phenyl)oxazol-2-yl)ethyl acetate] | 1 to 16

SMILES | MIC [µg/mL]
C=CCc1oc(C(CO)Oc2ccc(F)c(C(N)=O)c2F)nc1-c1ccc(C(F)(F)F)cc1 (stereo not shown) [Compound 66, 3-(1-(5-allyl-4-(4-(trifluoromethyl)phenyl)oxazol-2-yl)-2-hydroxyethoxy)-2,6-difluorobenzamide] | 1 to 16 (≈ 2.14 to 34.2 µM)
CCCc1oc(C(CO)Oc2ccc(F)c(C(N)=O)c2F)nc1-c1ccc(C(F)(F)F)cc1 (stereo not shown) [Compound 67, 2,6-difluoro-3-(2-hydroxy-1-(5-propyl-4-(4-(trifluoromethyl)phenyl)oxazol-2-yl)ethoxy)benzamide] | 1 to 16 (≈ 2.13 to 34 µM)
NC(=O)c1c(F)ccc(OC(COC(=O)Cn2cccc2)c2nc(-c3ccc(C(F)(F)F)cc3)c(Br)o2)c1F (stereo not shown) [Compound 68, 2-(5-bromo-4-(4-(trifluoromethyl)phenyl)oxazol-2-yl)-2-(3-carbamoyl-2,4-difluorophenoxy)ethyl 2-(1H-pyrrol-1-yl)acetate] | < 0.25
NC(=O)c1c(F)ccc(OC(COC(=O)CCCN2C(=O)c3ccccc3C2=O)c2nc(-c3ccc(C(F)(F)F)cc3)c(Br)o2)c1F (stereo not shown) [Compound 69, 2-(5-bromo-4-(4-(trifluoromethyl)phenyl)oxazol-2-yl)-2-(3-carbamoyl-2,4-difluorophenoxy)ethyl 4-(1,3-dioxoisoindolin-2-yl)butanoate] | 0.25 to 1 (≈ 0.346 to 1.38 µM)
C=CCOC(=O)CCC(=O)OCC(Oc1ccc(F)c(C(N)=O)c1F)c1nc(-c2ccc(C(F)(F)F)cc2)c(Br)o1 (stereo not shown) [Compound 70, allyl (2-(5-bromo-4-(4-(trifluoromethyl)phenyl)oxazol-2-yl)-2-(3-carbamoyl-2,4-difluorophenoxy)ethyl) succinate] | 0.25 to 1
C=CCOP(=O)(OCC=C)OCC(Oc1ccc(F)c(C(N)=O)c1F)c1nc(-c2ccc(C(F)(F)F)cc2)c(Br)o1 (stereo not shown) [Compound 71, diallyl (2-(5-bromo-4-(4-(trifluoromethyl)phenyl)oxazol-2-yl)-2-(3-carbamoyl-2,4-difluorophenoxy)ethyl) phosphate] | 0.25 to 1
CC(=O)OCCC(Oc1ccc(F)c(C(N)=O)c1F)c1nc(-c2ccc(C(F)(F)F)cc2)c(Br)o1 (stereo not shown) [Compound 72, 3-(5-bromo-4-(4-(trifluoromethyl)phenyl)oxazol-2-yl)-3-(3-carbamoyl-2,4-difluorophenoxy)propyl acetate] | 1 to 16
NC(=O)c1c(F)ccc(OC(CCO)c2nc(-c3ccc(C(F)(F)F)cc3)c(Br)o2)c1F (stereo not shown) [Compound 73, 3-(1-(5-bromo-4-(4-(trifluoromethyl)phenyl)oxazol-2-yl)-3-hydroxypropoxy)-2,6-difluorobenzamide] | 0.25 to 1 (≈ 0.48 to 1.92 µM)
NC(=O)c1c(F)ccc(OC(COC(=O)CCC(=O)O)c2nc(-c3ccc(C(F)(F)F)cc3)c(Br)o2)c1F (stereo not shown) [Compound 74, 4-(2-(5-bromo-4-(4-(trifluoromethyl)phenyl)oxazol-2-yl)-2-(3-carbamoyl-2,4-difluorophenoxy)ethoxy)-4-oxobutanoic acid] | 1 to 16 (≈ 1.65 to 26.3 µM)
C=CCOP(=O)(O)OCC(Oc1ccc(F)c(C(N)=O)c1F)c1nc(-c2ccc(C(F)(F)F)cc2)c(Br)o1 (stereo not shown) [Compound 75, allyl (2-(5-bromo-4-(4-(trifluoromethyl)phenyl)oxazol-2-yl)-2-(3-carbamoyl-2,4-difluorophenoxy)ethyl) hydrogen phosphate] | > 16
CC(=O)OCC(Oc1ccc(F)c(C(N)=O)c1F)c1nc(-c2ccc(C#N)cc2)c(Br)o1 (stereo not shown) [Compound 76, 2-(5-bromo-4-(4-cyanophenyl)oxazol-2-yl)-2-(3-carbamoyl-2,4-difluorophenoxy)ethyl acetate] | 1 to 16
NC(=O)c1c(F)ccc(OC(CC(=O)O)c2nc(-c3ccc(C(F)(F)F)cc3)c(Br)o2)c1F (stereo not shown) [Compound 77, 3-(5-bromo-4-(4-(trifluoromethyl)phenyl)oxazol-2-yl)-3-(3-carbamoyl-2,4-difluorophenoxy)propanoic acid] | > 16
CC(=O)OCC(Oc1ccc(F)c(C(N)=O)c1F)c1nc(-c2ccc(C(F)(F)F)cn2)c(Br)o1 (stereo not shown) [Compound 78, 2-(5-bromo-4-(5-(trifluoromethyl)pyridin-2-yl)oxazol-2-yl)-2-(3-carbamoyl-2,4-difluorophenoxy)ethyl acetate] | > 16
NC(=O)c1c(F)ccc(OC(CO)c2nc(-c3ccc(C(F)(F)F)cn3)c(Br)o2)c1F (stereo not shown) [Compound 79, 3-(1-(5-bromo-4-(5-(trifluoromethyl)pyridin-2-yl)oxazol-2-yl)-2-hydroxyethoxy)-2,6-difluorobenzamide] | 1 to 16 (≈ 1.97 to 31.5 µM)
N#Cc1ccc(-c2nc(C(CO)Oc3ccc(F)c(C(N)=O)c3F)oc2Br)cc1 (stereo not shown) [Compound 80, 3-(1-(5-bromo-4-(4-cyanophenyl)oxazol-2-yl)-2-hydroxyethoxy)-2,6-difluorobenzamide] | 1 to 16 (≈ 2.15 to 34.5 µM)
